Assay [1] has as its system subclones of RKO colon adenocarcinoma cells (RKOp27 or RKOp21) arrested by Ponasterone A. Description: Alamar Blue cell viability assay, cell cycle specific mode of action: cells arrested by ectopic p27Kip1 induced by Ponasterone A versus proliferating cells. The assay is classed as cell-based. The conditions noted are these: Homo sapiens, RKO p27 induced (arrested) cells, 10 μM Ponasterone A, 72 hours, value = class bound given in Table A, read-out: −logIC50 RKO p27 induced (arrested) (converted). Put shortly: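 Viability of proliferating versus Ponasterone A (10 μM)-arrested RKOp27/RKOp21 cells after 72 h compound exposure at 37° C, in quadruplicate. Read-out is Alamar Blue fluorescence (544/590 nm) normalised to untreated cells = 100%; values as −log IC50.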
On the technique in general: Resazurin is reduced to fluorescent resorufin, in cell work by metabolically active cells.

Assay [2] concerns RKO (RKOp27) human colon adenocarcinoma cells. As to the kind of experiment: Alamar Blue cell viability assay, anti-proliferative/cytotoxic activity on proliferating RKO subclones. The assay is classed as cell-based. To be noted: RKOp27, 72 h, RKO p27 uninduced (proliferating) cells, value = class bound given in Table A, read-out: −logIC50 RKO p27 uninduced (proliferating) (converted). A digest of the protocol: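 Alamar Blue fluorescence (ex 544, em 590 nm) after 72 h compound exposure at 37 °C, 5% CO2, normalised to untreated controls set at 100%. Cells were seeded at 5000 per well and dosed 24 h later with serial semi-logarithmic dilutions in 10% FCS DMEM, four replicates each. −log IC50 [mol/l] was derived from concentration-effect curves.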

The structures appear in SMILES notation.

Consider 23 compounds from patent publication US20110044938A1 (NYCOMED GMBH, priority 2006, published 2011).

Turning to `N#Cc1c(NC(=O)/C=C/c2cccnc2)sc2c1CCC(OC(=O)N1CC(F)C1)C2` (stereo not shown) [Example 124, 3-Fluoro-azetidine-1-carboxylic acid 3-cyano-2-((E)-3-pyridin-3-yl-allanoylamino)-4,5,6,7-tetrahydro-benzo[b]thiophen-6-yl ester], the IC50 in assay [1] was ≥ 100000 nM; in assay [2], ≤ 501 nM.

As to `N#Cc1c(NC(=O)/C=C/c2cccnc2)sc2c1CCC(OC(=O)N1CC[C@@H](O)[C@@H](O)C1)C2` (stereo partly drawn) [Example 125, cis-3-, 4-Dihydroxy-piperidine-1-carboxylic acid 3-cyano-2-((E)-3-pyridin-3-yl-allanoylamino)-4,5,6,7-tetrahydro-benzo[b]thiophen-6-yl ester], the IC50 is ≥ 100000 nM in assay [1] and 501 to 2000 nM in assay [2].

For the compound `CN(CC(O)CO)C(=O)OC1CCc2c(sc(NC(=O)/C=C/c3cccnc3)c2C#N)C1` (stereo not shown) [Example 126, (2,3-Dihydroxy-propyl)-methyl-carbamic acid 3-cyano-2-((E)-3-pyridin-3-yl-allanoylamino)-4,5,6,7-tetrahydro-benzo[b]thiophen-6-yl ester], the IC50 in assay [1] was ≥ 100000 nM; in assay [2], 501 to 2000 nM.

`CS(=O)(=O)NC1CCN(C(=O)OC2CCc3c(sc(NC(=O)/C=C/c4cccnc4)c3C#N)C2)CC1` (stereo not shown) [Example 127, 4-Methane-sulfonylamino-piperidine-1-carboxylic acid 3-cyano-2-((E)-3-pyridin-3-yl-allanoylamino)-4,5,6,7-tetrahydro-benzo[b]thiophen-6-yl ester]: the values for the IC50 in assay [1] and in assay [2] were ≥ 100000 nM and ≤ 501 nM, respectively.

As for `N#Cc1c(NC(=O)/C=C/c2cccnc2)sc2c1CCC(OC(=O)N[C@H]1CC[C@@H](O)CC1)C2` (stereo partly drawn) [Example 128, cis-4-Hydroxycyclohexyl-carbamic acid 3-cyano-2-((E)-3-pyridin-3-yl-allanoylamino)-4,5,6,7-tetrahydro-benzo[b]thiophen-6-yl ester], the IC50 in assay [1] was ≥ 100000 nM; in assay [2], 501 to 2000 nM.

On to `Cc1ccncc1/C=C/C(=O)Nc1sc2c(c1C#N)CCC(COC(=O)N(C)C)C2` (stereo not shown) [Example 129, Dimethyl-carbamic acid 3-cyano-2-[(E)-3-(4-methyl-pyridin-3-yl)-allanoylamino]-4,5,6,7-tetrahydro-benzo[b]thiophen-6-ylmethyl ester], for which the IC50 in assay [1] is ≥ 100000 nM; in assay [2], ≤ 501 nM.

`Cc1ccncc1/C=C/C(=O)Nc1sc2c(c1C#N)CCC(COC(=O)N1CCCC1)C2` (stereo not shown) [Example 130, Pyrrolidine-1-carboxylic acid 3-cyano-2-[(E)-3-(4-methyl-pyridin-3-yl)-allanoylamino]-4,5,6,7-tetrahydro-benzo[b]thiophen-6-ylmethyl ester]: the IC50 is ≥ 100000 nM in assay [1] and ≤ 501 nM in assay [2].

`Cc1ccncc1/C=C/C(=O)Nc1sc2c(c1C#N)CCC(COC(=O)N1CCC[C@@H](O)C1)C2` (stereo partly drawn) [Example 131, (R)-3-Hydroxy-piperidine-1-carboxylic acid 3-cyano-2-[(E)-3-(4-methyl-pyridin-3-yl)-allanoylamino]-4,5,6,7-tetrahydro-benzo[b]thiophen-6-ylmethyl ester]: the results for the IC50 in assay [1] and in assay [2] were ≥ 100000 nM and ≤ 501 nM, respectively.

Regarding `Cc1ccncc1/C=C/C(=O)Nc1sc2c(c1C#N)CCC(COC(=O)N1CC(O)C1)C2` (stereo not shown) [Example 132, 3-Hydroxy-azetidine-1-carboxylic acid 3-cyano-2-[(E)-3-(4-methyl-pyridin-3-yl)-allanoylamino]-4,5,6,7-tetrahydro-benzo[b]thiophen-6-ylmethyl ester], the IC50 in assay [1] is ≥ 100000 nM; in assay [2] it was 501 to 2000 nM.

As for `Cc1ccncc1/C=C/C(=O)Nc1sc2c(c1C#N)CCC(COC(=O)N1CCC(O)CC1)C2` (stereo not shown) [Example 133, 4-Hydroxy-piperidine-1-carboxylic acid 3-cyano-2-[(E)-3-(4-methyl-pyridin-3-yl)-allanoylamino]-4,5,6,7-tetrahydro-benzo[b]thiophen-6-ylmethyl ester], the IC50 in assay [1] was ≥ 100000 nM; in assay [2], ≤ 501 nM.

`Cc1cc(CNC(=O)OCC2CCc3c(sc(NC(=O)/C=C/c4cnccc4C)c3C#N)C2)no1` (stereo not shown) [Example 134, (5-Methyl-isoxazol-3-ylmethyl)-carbamic acid 3-cyano-2-[(E)-3-(4-methyl-pyridin-3-yl)-allanoylamino]-4,5,6,7-tetrahydro-benzo[b]thiophen-6-ylmethyl ester]: the figures for the IC50 in assay [1] and in assay [2] were ≥ 100000 nM and ≤ 501 nM, respectively.

On to `Cc1ccncc1/C=C/C(=O)Nc1sc2c(c1C#N)CCC(COC(=O)N1CCC[C@H]1CO)C2` (stereo partly drawn) [Example 135, 2-(S)-(Hydroxymethyl) pyrrolidine-1-carbamic acid 3-cyano-2-[(E)-3-(4-methyl-pyridin-3-yl)-allanoylamino]-4,5,6,7-tetrahydro-benzo[b]thiophen-6-ylmethyl ester], for which the IC50 in assay [1] was ≥ 100000 nM; in assay [2], 501 to 2000 nM.

With `COC(=O)[C@@H]1CCCN1C(=O)OCC1CCc2c(sc(NC(=O)/C=C/c3cccnc3)c2C#N)C1` (stereo partly drawn) [Example 136, 2-(S)-Pyrrolidine-1,2-dicarboxylic acid 1-[3-cyano-2-((E)-3-pyridin-3-yl-allanoylamino)-4,5,6,7-tetrahydro-benzo[b]thiophen-6-ylmethyl] ester 2-methyl ester], the values for the IC50 in assay [1] and in assay [2] were ≥ 100000 nM and 501 to 2000 nM, respectively.

Take `CC(C)CN(C)C(=O)OCC1CCc2c(sc(NC(=O)/C=C/c3cccnc3)c2C#N)C1` (stereo not shown) [Example 137, Isobutyl-methyl-carbamic acid 3-cyano-2-((E)-3-pyridin-3-yl-allanoylamino)-4,5,6,7-tetrahydro-benzo[b]thiophen-6-ylmethyl ester]: the results for the IC50 in assay [1] and in assay [2] were ≥ 100000 nM and ≤ 501 nM, respectively.

With `CN(C(=O)OCC1CCc2c(sc(NC(=O)/C=C/c3cccnc3)c2C#N)C1)C1CCCC1` (stereo not shown) [Example 138, Cyclopentyl-methyl-carbamic acid 3-cyano-2-((E)-3-pyridin-3-yl-allanoylamino)-4,5,6,7-tetrahydro-benzo[b]thiophen-6-ylmethyl ester], the IC50 in assay [1] is ≥ 100000 nM; in assay [2], 501 to 2000 nM.

For the compound `N#Cc1c(NC(=O)/C=C/c2cccnc2)sc2c1CCC(OC(=O)NC1CCC1)C2` (stereo not shown) [Example 139, Cyclobutyl-carbamic acid 3-cyano-2-((E)-3-pyridin-3-yl-allanoylamino)-4,5,6,7-tetrahydro-benzo[b]thiophen-6-yl ester], the figures for the IC50 in assay [1] and in assay [2] were ≥ 100000 nM and ≤ 501 nM, respectively.

With `CN(C)c1ncc(CNC(=O)OCC2CCc3c(sc(NC(=O)/C=C/c4cccnc4)c3C#N)C2)s1` (stereo not shown) [Example 140, (2-Dimethyl-amino-thiazol-5-ylmethyl)-carbamic acid 3-cyano-2-((E)-3-pyridin-3-yl-allanoylamino)-4,5,6,7-tetrahydro-benzo[b]thiophen-6-ylmethyl ester], the IC50 in assay [1] is ≥ 100000 nM; in assay [2], ≤ 501 nM.

Take `N#Cc1c(NC(=O)/C=C/c2cccnc2)sc2c1CCC(COC(=O)n1cccc1)C2` (stereo not shown) [Example 141, Pyrrole-1-carboxylic acid 3-cyano-2-((E)-3-pyridin-3-yl-allanoylamino)-4,5,6,7-tetrahydro-benzo[b]thiophen-6-ylmethyl ester]: the IC50 is ≥ 100000 nM in assay [1] and 501 to 2000 nM in assay [2].

Take `N#Cc1c(NC(=O)/C=C/c2cccnc2)sc2c1CCC(OC(=O)NC1CCCCC1)C2` (stereo not shown) [Example 142, Cyclohexyl-carbamic acid 3-cyano-2-((E)-3-pyridin-3-yl-allanoylamino)-4,5,6,7-tetrahydro-benzo[b]thiophen-6-yl ester]: the values for the IC50 in assay [1] and in assay [2] were ≥ 100000 nM and 501 to 2000 nM, respectively.

Consider `N#Cc1c(NC(=O)/C=C/c2cccnc2)sc2c1CCC(COC(=O)N1CC[C@H](O)C1)C2` (stereo partly drawn) [Example 144, (S)-3-Hydroxy-pyrrolidine-1-carboxylic acid 3-cyano-2-((E)-3-pyridin-3-yl-allanoylamino)-4,5,6,7-tetrahydro-benzo[b]thiophen-6-ylmethyl ester], for which the IC50 was ≥ 100000 nM in assay [1] and ≤ 501 nM in assay [2].

For `N#Cc1c(NC(=O)/C=C/c2cccnc2)sc2c1CCC(COC(=O)N1CC[C@@H](O)C1)C2` (stereo partly drawn) [Example 145, (R)-3-Hydroxy-pyrrolidine-1-carboxylic acid 3-cyano-2-((E)-3-pyridin-3-yl-allanoylamino)-4,5,6,7-tetrahydro-benzo[b]thiophen-6-ylmethyl ester], the results for the IC50 in assay [1] and in assay [2] were ≥ 100000 nM and ≤ 501 nM, respectively.

With `N#Cc1c(NC(=O)/C=C/c2cccnc2)sc2c1CCC(OC(=O)N1CC[C@H](O)C1)C2` (stereo partly drawn) [Example 146, (S)-3-Hydroxy-pyrrolidine-1-carboxylic acid 3-cyano-2-((E)-3-pyridin-3-yl-allanoylamino)-4,5,6,7-tetrahydro-benzo[b]thiophen-6-yl ester], the IC50 is ≥ 100000 nM in assay [1] and ≤ 501 nM in assay [2].

`N#Cc1c(NC(=O)/C=C/c2cccnc2)sc2c1CCC(OC(=O)N1CC[C@@H](O)C1)C2` (stereo partly drawn) [Example 147, (R)-3-Hydroxy-pyrrolidine-1-carboxylic acid 3-cyano-2-((E)-3-pyridin-3-yl-allanoylamino)-4,5,6,7-tetrahydro-benzo[b]thiophen-6-yl ester]: the figures for the IC50 in assay [1] and in assay [2] were ≥ 100000 nM and 501 to 2000 nM, respectively.
